Assay results taken from patent US12389906B2, “Aqueous herbicidal concentrates” (Monsanto Technology LLC, priority 2014, dated 2025).

Tests used:
AMATA = experiment: Field trial 1 weed control, AMATA; assay type: in vivo, waterhemp; conditions: 0.25 lb/acre, pre-emergence to weeds, 4 WAT
Source text: (§1) Four replications were completed per treatment.

[1] = system: CHEAL (common lambsquarters); experiment: Field trial 1 weed control, CHEAL; assay type: in vivo; conditions: 0.25 lb/acre, pre-emergence to weeds, 4 WAT
Source text: as §1

EPHSS (Euphorbia sps.) = experiment: Field trial 1 weed control, EPHSS; assay type: in vivo; conditions: 0.25 lb/acre, pre-emergence to weeds, 4 WAT
Source text: as §1

PESGL (pearl millet) = experiment: Field trial 1 weed control, PESGL; assay type: in vivo; conditions: 0.25 lb/acre, pre-emergence to weeds, 4 WAT
Source text: as §1

AMAPG = experiment: Field trial 1 weed control, AMAPG; assay type: in vivo, Glyphosate-resistant (GR) AMAPA; conditions: 0.25 lb/acre, pre-emergence to weeds, 4 WAT
Source text: as §1

narrowleaf weed species [2] = experiment: Field Trial 1 results summary, narrowleaf control; assay type: in vivo; conditions: 0.25 lb a.i./acre (0.28 kg/hectare), 4 WAT
Source text: as §1

SORHA (johnsongrass) = experiment: Field trial 1 weed control, SORHA; assay type: in vivo; conditions: 0.25 lb/acre, pre-emergence to weeds, 4 WAT
Source text: as §1

DIGSA = experiment: Field trial 1 weed control, DIGSA; assay type: in vivo; conditions: 0.25 lb/acre, pre-emergence to weeds, 4 WAT
Source text: as §1

MOLVE (carpetweed) = experiment: Field trial 1 weed control, MOLVE; assay type: in vivo; conditions: 0.25 lb/acre, pre-emergence to weeds, 4 WAT
Source text: as §1

ABUTH (velvetleaf) = experiment: Field trial 1 weed control, ABUTH; assay type: in vivo; conditions: 0.25 lb/acre, pre-emergence to weeds, 4 WAT
Source text: as §1

AMATG = experiment: Field trial 1 weed control, AMATG; assay type: in vivo, Glyphosate-resistant (GR) AMATA; conditions: 0.25 lb/acre, pre-emergence to weeds, 4 WAT
Source text: as §1

HIBTR (venice mallow) = experiment: Field trial 1 weed control, HIBTR; assay type: in vivo; conditions: 0.25 lb/acre, pre-emergence to weeds, 4 WAT
Source text: as §1

DIGSS (Digitaria sps.) = experiment: Field trial 1 weed control, DIGSS; assay type: in vivo; conditions: 0.25 lb/acre, pre-emergence to weeds, 4 WAT
Source text: as §1

CASOB (sicklepod) = experiment: Field trial 1 weed control, CASOB; assay type: in vivo; conditions: 0.25 lb/acre, pre-emergence to weeds, 4 WAT
Source text: as §1

POROL (common purslane) = experiment: Field trial 1 weed control, POROL; assay type: in vivo; conditions: 0.25 lb/acre, pre-emergence to weeds, 4 WAT
Source text: as §1

narrowleaf weed species [3] = experiment: Field Trial 2 results summary, narrowleaf control; assay type: in vivo; conditions: 0.25 lb a.i./acre (0.28 kg/hectare), 4 WAT
Source text: as §1

SORSS (Sorghum sps.) = experiment: Field trial 1 weed control, SORSS; assay type: in vivo; conditions: 0.25 lb/acre, pre-emergence to weeds, 4 WAT
Source text: as §1

IPOLA = experiment: Field trial 1 weed control, IPOLA; assay type: in vivo; conditions: 0.25 lb/acre, pre-emergence to weeds, 4 WAT
Source text: as §1

SETFA (giant foxtail) = experiment: Field trial 1 weed control, SETFA; assay type: in vivo; conditions: 0.25 lb/acre, pre-emergence to weeds, 4 WAT
Source text: as §1

IPOHE = experiment: Field trial 1 weed control, IPOHE; assay type: in vivo; conditions: 0.25 lb/acre, pre-emergence to weeds, 4 WAT
Source text: as §1

SEBEX = experiment: Field trial 1 weed control, SEBEX; conditions: 0.25 lb/acre, pre-emergence to weeds, 4 WAT
Experimental: A series of field trials were conducted at a variety of locations. The soil texture at these sites ranged from silty loam, silty clay loam, to sandy silt loam and sandy loam. The objective of the experiment was to evaluate the weed efficacy and length of residual efficacy of the each standalone herbicide compared to the herbicide combinations. The experiments were conducted in a randomized complete block design. Four replications were completed per treatment. Time of application was pre-emergence to weeds, and treatments were applied using a back-pack or tractor mounted sprayer.
Weed control was determined as a percentage as compared to untreated plants following a standard procedure where visual assessment of plant mortality and growth reduction is made by one specially trained to make such assessments. Across the field trials, the results for 16 broadleaf and 7 narrowleaf weed species were recorded. […] Mean percent control and standard error are calculated by the least squares method.

broadleaf weed species [4] = experiment: Field Trial 2 results summary, broadleaf control; assay type: in vivo; conditions: 0.25 lb a.i./acre (0.28 kg/hectare), 4 WAT
Source text: as §1

[5] = system: IPOSS (Morningglory sps.); experiment: Field trial 1 weed control, IPOSS; assay type: in vivo; conditions: 0.25 lb/acre, pre-emergence to weeds, 4 WAT
Source text: as §1

AMBEL (common ragweed) = experiment: Field trial 1 weed control, AMBEL; assay type: in vivo; conditions: 0.25 lb/acre, pre-emergence to weeds, 4 WAT
Source text: as §1

ECHCF = experiment: Field trial 1 weed control, ECHCF; assay type: in vivo; conditions: 0.25 lb/acre, pre-emergence to weeds, 4 WAT
Source text: as §1

AMAPA = experiment: Field trial 1 weed control, AMAPA; assay type: in vivo, palmer amaranth; conditions: 0.25 lb/acre, pre-emergence to weeds, 4 WAT
Source text: as §1

broadleaf weed species [6] = experiment: Field Trial 1 results summary, broadleaf control; assay type: in vivo; conditions: 0.25 lb a.i./acre (0.28 kg/hectare), 4 WAT
Source text: as §1

ECHCG (Echinochola sps.) = experiment: Field trial 1 weed control, ECHCG; assay type: in vivo; conditions: 0.25 lb/acre, pre-emergence to weeds, 4 WAT
Source text: as §1

BRASS (Signalgrass sps.) = experiment: Field trial 1 weed control, BRASS; assay type: in vivo; conditions: 0.25 lb/acre, pre-emergence to weeds, 4 WAT
Source text: as §1

SIDSP (prickly sida) = experiment: Field trial 1 weed control, SIDSP; assay type: in vivo; conditions: 0.25 lb/acre, pre-emergence to weeds, 4 WAT
Source text: as §1

[7] = system: ACCOS (hophornbeam copperleaf); experiment: Field trial 1 weed control, ACCOS; assay type: in vivo; conditions: 0.25 lb/acre, pre-emergence to weeds, 4 WAT
Source text: as §1

CS(=O)(=O)NC(=O)c1cc(Oc2ccc(C(F)(F)F)cc2Cl)ccc1[N+](=O)[O-] [Fomesafen, fomesafen]
% Control (mean) (AMATA): 85.8%
% Control (mean) [1]: 78.3%
% Control (mean) (EPHSS (Euphorbia sps.)): 100.0%
% Control (mean) (PESGL (pearl millet)): 100.0%
% Control (mean) (AMAPG): 87.8%
Narrowleaf Control (narrowleaf weed species [2]): 79%
% Control (mean) (SORHA (johnsongrass)): 86.8%
% Control (mean) (DIGSA): 65.3%
% Control (mean) (MOLVE (carpetweed)): 90.6%
% Control (mean) (ABUTH (velvetleaf)): 63.7%
% Control (mean) (AMATG): 57.5%
% Control (mean) (HIBTR (venice mallow)): 75.0%
% Control (mean) (DIGSS (Digitaria sps.)): 99.0%
% Control (mean) (CASOB (sicklepod)): 46.2%
% Control (mean) (POROL (common purslane)): 66.3%
Narrowleaf Control (narrowleaf weed species [3]): 66.3%
% Control (mean) (SORSS (Sorghum sps.)): 99.8%
% Control (mean) (IPOLA): 27.5%
% Control (mean) (SETFA (giant foxtail)): 58.8%
% Control (mean) (IPOHE): 52.5%
% Control (mean) (SEBEX): 33.8%
Broadleaf Control (broadleaf weed species [4]): 63.6%
% Control (mean) [5]: 63.1%
% Control (mean) (AMBEL (common ragweed)): 75.8%
% Control (mean) (ECHCF): 71.9%
% Control (mean) (AMAPA): 92.5%
Broadleaf Control (broadleaf weed species [6]): 70%
% Control (mean) (ECHCG (Echinochola sps.)): 66.8%
% Control (mean) (BRASS (Signalgrass sps.)): 99.5%
% Control (mean) (SIDSP (prickly sida)): 98.3%
% Control (mean) [7]: 93.8%
